Results: patent US8134015B2, “Compound inhibiting in vivo phosphorous transport and medicine containing the same” (Kyowa Hakko Kirin Co., Ltd., priority 2003, dated 2012)

What follows are molecules tested against T1, rat NaPi-2b (Rattus norvegicus, UniProt Q9JJ09) (assay: Sodium-dependent phosphate uptake of Xenopus oocytes which expressed NaPi-2b (32P)). Details: Xenopus oocytes expressing rat NaPi-2b, 32P radioactive phosphorus; read-out: IC50 (phosphate uptake inhibitory activity).
T1 construct: expressed in transfected cells; host or cells: Xenopus oocytes injected with cRNA
T1 sequence (Q9JJ09 1-695): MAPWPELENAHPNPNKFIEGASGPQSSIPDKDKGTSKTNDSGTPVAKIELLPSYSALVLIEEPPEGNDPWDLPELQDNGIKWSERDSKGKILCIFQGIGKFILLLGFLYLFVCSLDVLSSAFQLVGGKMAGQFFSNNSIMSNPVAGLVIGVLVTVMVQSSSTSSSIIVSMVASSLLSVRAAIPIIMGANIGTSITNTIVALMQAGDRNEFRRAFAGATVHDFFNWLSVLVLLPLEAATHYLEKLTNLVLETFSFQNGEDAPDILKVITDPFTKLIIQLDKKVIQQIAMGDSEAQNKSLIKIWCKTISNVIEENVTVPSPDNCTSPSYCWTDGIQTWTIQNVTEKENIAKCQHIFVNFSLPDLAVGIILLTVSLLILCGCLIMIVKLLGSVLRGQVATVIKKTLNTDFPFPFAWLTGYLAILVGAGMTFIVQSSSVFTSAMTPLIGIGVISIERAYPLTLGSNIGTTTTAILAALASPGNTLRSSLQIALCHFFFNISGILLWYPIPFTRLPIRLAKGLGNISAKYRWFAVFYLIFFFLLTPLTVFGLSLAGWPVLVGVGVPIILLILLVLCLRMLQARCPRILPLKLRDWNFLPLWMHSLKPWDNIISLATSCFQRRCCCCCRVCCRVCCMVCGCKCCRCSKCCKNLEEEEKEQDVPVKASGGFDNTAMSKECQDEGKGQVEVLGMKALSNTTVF
Assay type: cell-based
Method: Pharmacological Test Example 1
Experiment of Sodium-Dependent Phosphate Uptake of Xenopus oocytes which Expressed NaPi-2b
Degenerate primers were prepared from sequences of mouse NaPi-2b disclosed in Hilfiker H. et al., Pro Natl Acad Sci USA, 95 (24): 14564-14569, […] and sequences of human and rat NaPi-2a disclosed in Magagnin S. et al., Proc Natl Aca Sci USA, 90 (13): 5979-5983, 1993. RNA was extracted from the rat small intestine using ISOGEN; manufactured by NIPPON GENE CO., LTD (Japan). 400 bp gene fragments were obtained by PCR using, as a template, a cDNA library prepared with a cDNA synthesis kit (manufactured by STRATAGENE (US)). Thereafter, the above rat small intestine cDNA library was screened using the gene fragment as a probe, and the whole gene sequence of rat NaPi-2b was cloned. cRNA was synthesized from the cloned rat NaPi-2b cDNA with a cRNA synthesis kit (manufactured by Ambion (US)). The synthesized cRNA was injected into Xenopus oocytes (obtained from COPACETIC (Japan)) with a liquid microinjector (manufactured by Drummond (US)) and was cultured for 2 days to express rat NaPi-2b. Thereafter, for a group of derivatives, phosphate uptake inhibitory activity were measured using the Xenopus oocytes with ^32P radioactive phosphorus (manufactured by Daiichi Kagaku Inc. (Japan)). […] The inhibitory activity for 300 μM and 100 μM was determined from the same inhibition curve and expressed in percentage inhibition (%) in Table 5.

| IC50 | SMILES |
| --- | --- |
| 7.15 µM | COc1ccc(C(=O)Nc2ccccc2C(=O)N/N=C/c2ccccc2C)cc1OC [Compound 3, 3,4-Dimethoxy-N-[2-(2-methyl-benzylidene-hydrazinocarbonyl)-phenyl]-benzamide] |
| 79.9 µM | COc1ccccc1/C=N/NC(=O)c1ccccc1NC(=O)c1ccc(OC)c(OC)c1 [Compound 4, 3,4-Dimethoxy-N-[2-(2-methoxy-benzylidene-hydrazinocarbonyl)-phenyl]-benzamide] |
| 3.31 µM | COc1cccc(/C=N/NC(=O)c2ccccc2NC(=O)c2ccc(OC)c(OC)c2)c1 [Compound 5, 3,4-Dimethoxy-N-[2-(3-methoxy-benzylidene-hydrazinocarbonyl)-phenyl]-benzamide] |
| 5.38 µM | COc1ccc(C(=O)Nc2ccccc2C(=O)N/N=C/c2cc(C(C)(C)C)c(O)c(C(C)(C)C)c2)cc1OC [Compound 6, N-[2-(3,5-Di-tert-butyl-4-hydroxy-benzylidene-hydrazinocarbonyl)-phenyl]-3,4-dimethoxy-benzamide] |
| 7.15 µM | COc1ccc(C(=O)Nc2ccccc2C(=O)N/N=C/C(C)=C/c2ccccc2)cc1OC [Compound 7, 3,4-Dimethoxy-N-[2-(2-methyl-3-phenyl-allylidene-hydrazinocarbonyl)-phenyl]-benzamide] |
| 1.72 µM | COc1ccc(C(=O)Nc2ccccc2C(=O)N/N=C/c2cc(C(F)(F)F)cc(C(F)(F)F)c2)cc1OC [Compound 8, N-[2-(3,5-Bis-trifluoromethyl-benzylidene-hydrazinocarbonyl)-phenyl]-3,4-dimethoxy-benzamide] |
| 4.26 µM | COc1ccc(C(=O)Nc2ccccc2C(=O)N/N=C/c2cccc(C#N)c2)cc1OC [Compound 9, N-[2-(3-Cyano-benzylidene-hydrazinocarbonyl)-phenyl]-3,4-dimethoxy-benzamide] |
| 26.1 µM | COc1ccc(C(=O)Nc2ccccc2C(=O)N/N=C/c2ccccc2Br)cc1OC [Compound 10, N-[2-(2-Bromo-benzylidene-hydrazinocarbonyl)-phenyl]-3,4-dimethoxy-benzamide] |
| 8.21 µM | COc1cc(/C=N/NC(=O)c2ccccc2NC(=O)c2ccc(OC)c(OC)c2)ccc1O [Compound 11, N-[2-(4-Hydroxy-3-methoxy-benzylidene-hydrazinocarbonyl)-phenyl]-3,4-dimethoxy-benzamide] |
| 4.51 µM | COc1ccc(C(=O)Nc2ccccc2C(=O)N/N=C/c2cc(OC)c(OC)c(OC)c2)cc1OC [Compound 12, 3,4-Dimethoxy-N-[2-(3,4,5-trimethoxy-benzylidene-hydrazinocarbonyl)-phenyl]-benzamide] |
| 9.22 µM | COc1ccc(C(=O)Nc2ccc(Br)cc2C(=O)N/N=C/C=C/c2ccccc2)cc1OC [Compound 13, N-[4-Bromo-2-(3-phenyl-allylidene-hydrazinocarbonyl)-phenyl]-3,4-dimethoxy-benzamide] |
| 12.1 µM | COc1ccc(C(=O)Nc2ccc(Br)cc2C(=O)N/N=C/c2ccccc2Br)cc1OC [Compound 14, N-[4-Bromo-2-(2-bromo-benzylidene-hydrazinocarbonyl)-phenyl]-3,4-dimethoxy-benzamide] |
| 1.41 µM | COc1ccc(C(=O)Nc2ccccc2C(=O)N/N=C/c2cccc(F)c2)cc1OC [Compound 15, N-[2-(3-Fluoro-benzylidene-hydrazinocarbonyl)-phenyl]-3,4-dimethoxy-benzamide] |
| 2.3 µM | COc1ccc(C(=O)Nc2ccccc2C(=O)N/N=C/c2ccc(F)cc2)cc1OC [Compound 16, N-[2-(4-Fluoro-benzylidene-hydrazinocarbonyl)-phenyl]-3,4-dimethoxy-benzamide] |
| 3.59 µM | COc1ccc(C(=O)Nc2ccccc2C(=O)N/N=C/c2ccccc2)cc1OC [Compound 17, N-[2-(Benzylidene-hydrazinocarbonyl)-phenyl]-3,4-dimethoxy-benzamide] |
| 4.03 µM | COc1ccc(C(=O)Nc2ccccc2C(=O)N/N=C/c2cccc(O)c2)cc1OC [Compound 18, N-[2-(3-Hydroxy-benzylidene-hydrazinocarbonyl)-phenyl]-3,4-dimethoxy-benzamide] |
| 8.16 µM | COc1ccc(C(=O)Nc2ccccc2C(=O)N/N=C/c2ccc(O)cc2)cc1OC [Compound 19, N-[2-(4-Hydroxy-benzylidene-hydrazinocarbonyl)-phenyl]-3,4-dimethoxy-benzamide] |
| 2.83 µM | COc1ccc(C(=O)Nc2ccccc2C(=O)N/N=C/c2cccc(C)c2)cc1OC [Compound 20, 3,4-Dimethoxy-N-[2-(3-methyl-benzylidene-hydrazinocarbonyl)-phenyl]-benzamide] |
| 21.5 µM | COc1ccc(C(=O)Nc2ccccc2C(=O)N/N=C/c2ccco2)cc1OC [Compound 21, N-[2-(Furan-2-ylmethylene-hydrazinocarbonyl)-phenyl]-3,4-dimethoxy-benzamide] |
| 26.7 µM | COc1ccc(C(=O)Nc2ccccc2C(=O)N/N=C/c2ccc(C)o2)cc1OC [Compound 22, 3,4-Dimethoxy-N-[2-(5-methyl-furan-2-ylmethylene-hydrazinocarbonyl)-phenyl]-benzamide] |
| 9.88 µM | COc1ccc(C(=O)Nc2ccccc2C(=O)N/N=C/c2cccs2)cc1OC [Compound 23, 3,4-Dimethoxy-N-[2-(thiophen-2-ylmethylene-hydrazinocarbonyl)-phenyl]-benzamide] |
| 20.9 µM | COc1ccc(C(=O)Nc2ccccc2C(=O)N/N=C/c2ccsc2)cc1OC [Compound 24, 3,4-Dimethoxy-N-[2-(thiophen-3-ylmethylene-hydrazinocarbonyl)-phenyl]-benzamide] |
| 23.9 µM | COc1ccc(C(=O)Nc2ccccc2C(=O)N/N=C/c2ccc(O)cc2O)cc1OC [Compound 25, N-[2-(2,4-Dihydroxy-benzylidene-hydrazinocarbonyl)-phenyl]-3,4-dimethoxy-benzamide] |
| 25.4 µM | COc1ccc(C(=O)Nc2ccccc2C(=O)N/N=C/c2ccc(O)c(O)c2)cc1OC [Compound 26, N-[2-(3,4-Dihydroxy-benzylidene-hydrazinocarbonyl)-phenyl]-3,4-dimethoxy-benzamide] |
| 3.63 µM | O=C(Nc1ccccc1C(=O)N/N=C/c1ccccc1)c1ccccc1F [Compound 27, N-[2-(Benzylidene-hydrazinocarbonyl)-phenyl]-2-fluoro-benzamide] |
| 5.12 µM | COc1ccc(C(=O)Nc2ccc(Br)cc2C(=O)N/N=C/c2ccccc2F)cc1OC [Compound 28, N-[4-Bromo-2-(2-fluoro-benzylidene-hydrazinocarbonyl)-phenyl]-3,4-dimethoxy-benzamide] |
| 7.86 µM | COc1ccc(C(=O)Nc2ccc(Br)cc2C(=O)N/N=C/c2ccccc2C)cc1OC [Compound 30, N-[4-Bromo-2-(2-methyl-benzylidene-hydrazinocarbonyl)-phenyl]-3,4-dimethoxy-benzamide] |
| 0.58 µM | COc1ccc(C(=O)Nc2ccc(Br)cc2C(=O)N/N=C/c2cccc(C)c2)cc1OC [Compound 31, N-[4-Bromo-2-(3-methyl-benzylidene-hydrazinocarbonyl)-phenyl]-3,4-dimethoxy-benzamide] |
| 1.95 µM | COc1ccc(C(=O)Nc2ccccc2C(=O)N/N=C/c2ccc(F)c(Cl)c2)cc1OC [Compound 32, N-[2-(3-Chloro-4-fluoro-benzylidene-hydrazinocarbonyl)-phenyl]-3,4-dimethoxy-benzamide] |

Same assay, conditions: phosphate uptake, oocytes expressing rat NaPi-2b; 300 μM, determined from inhibition curve

| inhibition at 300 µM | SMILES |
| --- | --- |
| 77.3% | COc1ccc(C(=O)Nc2ccccc2C(=O)N/N=C/c2ccccc2F)cc1OC [Compound 2, N-[2-(2-Fluoro-benzylidene-hydrazinocarbonyl)-phenyl]-3,4-dimethoxy-benzamide] |
